Measurements: patent US20030109583A1 (priority 2001, published 2003)
Like-named read-outs stand apart in the source and are kept apart here.

What was measured:
Proteus vulgaris = details: cited from earlier work
Staphylococcus aureus = details: cited from earlier work
[1] = kept at 37° C. for one month, cited from earlier work
Salmonella typhosa = details: cited from earlier work
Proteus rettgeri = details: cited from earlier work
Mycobacterium smegmatis = details: cited from earlier work
[2] = system: Staphylococcus aureus MRSA; assay: in vitro MIC assay; type: cell-based; details: activity = MIC<128 μg/ml
Method: (§1) The ability of negamycin or deoxynegamycin, or pharmaceutically acceptable salts, prodrugs or isomers thereof, to treat bacterial infection was measured by in vitro assay described below. The compounds were kept in DMSO at 10 mg/ml and diluted into the test medium for the assay.
(§2) The strains used for assaying negamycin include the following: Acinetobacter baumanii, Citrobacter freundii, Enterobacter aerogenes, Haemophilus influenzae, Moraxella catarrhalis, Staphylococcus aureus MRSA, Staphylococcus aureus GISA, Staphylococcus epidermis, Streptococcus pneumoniae PenR, Streptococcus pneumoniae PenS, Streptococcus pyogenes, Helicobacter pylori and E. faecium. The strains used for assaying deoxynegamycin include the following: Haemophilus influenzae, Staphylococcus aureus MRSA, Staphylococcus aureus GISA, Staphylococcus epidermis, Streptococcus pneumoniae PenR, Streptococcus pneumoniae PenS, Streptococcus pyogenes and E. facium.
(§3) (1) Liquid Medium, Nutrient Broth and Mueller-Hinton Broth with 50% Human Serum
(§4) Compounds were suspended in a DMSO solution containing 10 mg/ml of compound. The appropriate amount of compound was added to a well of the first column of a 96-well microtiter plate containing 100 μl of Nutrient Broth (NB) or Mueller-Hinton Broth with 50% human serum (MHB+HS), for S. pneumoniae the NB medium was supplemented with 3 or 5% lysed horse blood. The rest of the wells in the row had 50 μl of the same medium in each well. After adding the compound to the first well and mixing thoroughly, 50 μl was taken out, and mixed to the second well of the row. This operation was repeated until the well of column 11 was reached and, after mixing, 50 μl were discarded. […] A concentration gradient of two-fold dilution was achieved by this method. A distinct compound was added to the first column well of the next row of the microtiter plate, and the procedure was repeated until all the rows are used. The plate was then ready for inoculation.
(§5) Bacterial strains were inoculated from a frozen stock on Mueller-Hinton Agar (Difco) or Blood Agar for S. pneumoniae and grown at 35° C. overnight. Cells were suspended in sterile saline to 0.5 McFarland standard. The inoculum was diluted approximately 1:1000 in the appropriate medium to reach an inoculum size of 10^5 cfu/ml (NB, NB supplemented with 3 or 5% lysed horse blood for S. pneumoniae, or MHB+HS). The diluted cell suspension was used to inoculate the microtiter plate containing two-fold dilution of the test compound. Each well of the microtiter plate received 50 μl of the cell suspension. The final volume was 100 μl (50 μl from the inoculum and 50 μl of the medium containing the compound).
(§6) The plates were incubated at 35° C. for 16 to 20 hours, the minimal inhibitory concentration (MIC) was recorded and was defined as the lowest concentration of compound that there is no visible growth.
(§7) (2) Solid Medium, Mueller-Hinton Agar with 50% Human Serum
(§8) Compounds were suspended in a DMSO solution containing 10 mg/ml of compound. The appropriate amount of compound was added to melted Mueller-Hinton Agar with 50% human serum (MHA+HS) at 50° C. The medium has been prepared by adding human serum to a melted Mueller-Hinton Agar (MHA) at two fold the concentration. MHA+HS has 50% human serum and normal strength of MHA. The appropriate concentration of compound was added to 4 ml of melted MHA+HS, and poured in a 6 cm diameter petri dish, and the agar was allowed to solidify at room temperature. A set of petri dishes, each dish containing half the concentration of compound of the previously poured dish, was made and used to assess the MIC in solid medium.
(§9) Bacterial strains were inoculated from a frozen stock on Mueller-Hinton Agar (Difco) or Blood Agar for S. pneumoniae and grown at 35° C. overnight. Cells are suspended in sterile saline to 0.5 McFarland standard. The inoculum was diluted approximately 1:10 in sterile saline water to obtain a bacterial suspension at 10^7 cfu/ml. […]

Haemophilus influenzae = assay: in vitro MIC assay; type: cell-based; details: activity = MIC<128 μg/ml
Method: as §1, §2, §3, §4, §5, §6, §7, §8, §9

[3] = system: Staphylococcus aureus GISA; assay: in vitro MIC assay; type: cell-based; details: activity = MIC<128 μg/ml
Method: as §1, §2, §3, §4, §5, §6, §7, §8, §9

[4] = system: Streptococcus pneumoniae PenS; assay: in vitro MIC assay; type: cell-based; details: activity = MIC<128 μg/ml
Method: as §1, §2, §3, §4, §5, §6, §7, §8, §9

Citrobacter freundii = assay: in vitro MIC assay; type: cell-based; details: activity = MIC<128 μg/ml
Method: as §1, §2, §3, §4, §5, §6, §7, §8, §9

Acinetobacter baumanii = assay: in vitro MIC assay; type: cell-based; details: Acinetobacter baumannii, activity = MIC<128 μg/ml
Method: as §1, §2, §3, §4, §5, §6, §7, §8, §9

Staphylococcus epidermis = assay: in vitro MIC assay; type: cell-based; details: activity = MIC<128 μg/ml
Method: as §1, §2, §3, §4, §5, §6, §7, §8, §9

Streptococcus pyogenes = assay: in vitro MIC assay; type: cell-based; details: activity = MIC<128 μg/ml
Method: as §1, §2, §3, §4, §5, §6, §7, §8, §9

Enterobacter aerogenes [5] = assay: in vitro MIC assay; type: cell-based; details: Klebsiella aerogenes, activity = MIC<128 μg/ml
Method: as §1, §2, §3, §4, §5, §6, §7, §8, §9

Helicobacter pylori = assay: in vitro MIC assay; type: cell-based; details: activity = MIC<128 μg/ml
Method: as §1, §2, §3, §4, §5, §6, §7, §8, §9

E. faecium = assay: in vitro MIC assay; type: cell-based; details: activity = MIC<128 μg/ml
Method: as §1, §2, §3, §4, §5, §6, §7, §8, §9

Moraxella catarrhalis = assay: in vitro MIC assay; type: cell-based; details: activity = MIC<128 μg/ml
Method: as §1, §2, §3, §4, §5, §6, §7, §8, §9

[6] = system: Streptococcus pneumoniae PenR; assay: in vitro MIC assay; type: cell-based; details: activity = MIC<128 μg/ml
Method: as §1, §2, §3, §4, §5, §6, §7, §8, §9

Shigella flexneri = details: cited from earlier work
S. Aureus = assay: ED50 against S. Aureus; type: in vivo; details: Staphylococcus aureus, route not stated
Method: (§10) Mice were inoculated intraperitoneally with 2×10^5 cfu/mouse in 0.5 ml of Brain-Heart Infusion broth supplemented with 5% mucin. The compound was tested at 40, 20, 10, 5 and 2.5 mg/kg orally (PO) or at 20, 10, 5 and 2.5 mg/kg intravenously (IV) at 1 and 5 hours after bacterial inoculation. Controls included vehicle control (0.9% NaCl, 10 ml/kg) and an antibiotic control with ampicillin. Mortality was recorded for 7 days, and an ED50 was determined by non-linear regression.

Herellea vaginicola = details: cited from earlier work
Enterobacter sp. = details: cited from earlier work
Shigella sonnei = details: cited from earlier work
Pseudomonas fluorescens = details: cited from earlier work
Salmonella typhi = details: cited from earlier work
Escherichia coli = details: cited from earlier work
Klebsiella pneumoniae = details: cited from earlier work
[7] = system: Escherichia coli ATCC 25922; assay: mouse septicemia model; type: in vivo, ICR male mice; details: mortality recorded for 7 days, E. coli ATCC 25922 mouse septicemia
Method: as §10

Salmonella typhimurium = details: cited from earlier work
Serratia marcescens = details: cited from earlier work
Salmonella enteriditis = details: cited from earlier work
Pseudomonas aeruginosa = details: cited from earlier work
Candida albicans = details: cited from earlier work
Proteius mirabilis = details: cited from earlier work
Trichophyton tonsurans = details: cited from earlier work
[8] = system: Trichophyton mentagraphytes; details: cited from earlier work
Enterobacter aerogenes [9] = details: cited from earlier work
Cryptococcus neoformans = details: cited from earlier work
[10] = ATCC25922, intravenously (IV) at 1 and 5 hours after inoculation
[11] = ATCC25922, orally (PO) at 1 and 5 hours after inoculation

SMILES	reported as effective against organism (Proteus vulgaris)	reported as effective against organism (Staphylococcus aureus)	reported as effective against organism (Proteus rettgeri)	reported as effective against organism (Mycobacterium smegmatis)	MIC (E. faecium)	reported as effective against organism (Shigella flexneri)	reported as effective against organism (Herellea vaginicola)	reported as effective against organism (Enterobacter sp.)	reported as effective against organism (Pseudomonas fluorescens)	reported as effective against organism (Salmonella typhi)	reported as effective against organism (Escherichia coli)	reported as effective against organism (Klebsiella pneumoniae)	ED50 [7, 10] [mg/kg]	ED50 [7, 11] [mg/kg]	reported as effective against organism (Salmonella typhimurium)	reported as effective against organism (Serratia marcescens)	reported as effective against organism (Salmonella enteriditis)	reported as effective against organism (Pseudomonas aeruginosa)	also measured
CN(CC(=O)O)NC(=O)C[C@H](N)C[C@@H](O)CN [Negamycin, [2-{(3R,5R)-3,6-diamino-5-hydroxyhexanoyl}-1-methylhydrazino]acetic acid]	effective	effective	effective	effective	inactive	effective	effective	effective	effective	effective	effective	effective	4.1	15.1	effective	effective	effective	effective	activity reduced to ([1]; in 0.02N HCl aqueous solution): 50%; activity reduced to ([1]; in aqueous solution): 63%; reported as effective against organism (Salmonella typhosa): effective; MIC ([2]; read-out: MIC): < 128 µg/mL; MIC (Haemophilus influenzae; read-out: MIC): < 128 µg/mL; MIC ([3]; read-out: MIC): < 128 µg/mL; MIC ([4]; read-out: MIC): < 128 µg/mL; MIC (Citrobacter freundii): < 128 µg/mL; MIC (Acinetobacter baumanii): < 128 µg/mL; MIC (Staphylococcus epidermis; read-out: MIC): < 128 µg/mL; MIC (Streptococcus pyogenes; read-out: MIC): < 128 µg/mL; MIC (Enterobacter aerogenes [5]): < 128 µg/mL; MIC (Helicobacter pylori): < 128 µg/mL; MIC (Moraxella catarrhalis): < 128 µg/mL; MIC ([6]; read-out: MIC): < 128 µg/mL; ED50 (S. Aureus): 16.8 mg/kg; reported as effective against organism (Shigella sonnei): effective
CC1(C)S[C@@H]2[C@H](NC(=O)[C@H](N)c3ccccc3)C(=O)N2[C@H]1C(=O)O [Ampicillin, reference compound]													6.8	27.6					
CN(CC(=O)O)NC(=O)C[C@H](N)CCCN [Deoxynegamycin, D-3,6-diaminiohexanoic acid-2-(carboxymethyl)-2-methylhyrazide]	effective	effective	effective	effective	inactive	effective	effective	effective	effective	effective	effective	effective	4.8		effective	effective	effective	effective	reported as effective against organism (Candida albicans): effective; reported as effective against organism (Proteius mirabilis): effective; reported as effective against organism (Trichophyton tonsurans): effective; MIC [2]: exhibited activity; MIC (Haemophilus influenzae): exhibited activity; MIC [3]: exhibited activity; MIC [4]: exhibited activity; MIC (Staphylococcus epidermis): exhibited activity; MIC (Streptococcus pyogenes): exhibited activity; MIC [6]: exhibited activity; reported as effective against organism [8]: effective; reported as effective against organism (Enterobacter aerogenes [9]): effective; reported as effective against organism (Cryptococcus neoformans): effective
